From article PMC8584229, “Comparative Antiseizure Analysis of Diverse Natural Coumarin Derivatives in Zebrafish” (International Journal of Molecular Sciences, 2021)
Where two headings read alike, the source gives them in different places.

What was measured:
[1] = system: seizure-related locomotor activity of zebrafish; set-up: method as in PMID 30668376; conditions: cited from earlier work
[2] = system: PTZ-induced seizure-like behavior (locomotor activity) of zebrafish larvae; assay: Larval zebrafish PTZ seizure model, locomotor analysis (behavioral antiseizure activity); type: in vivo, zebrafish (Danio rerio); conditions: for antiseizure activity in the locomotor assay (in words) / lowered seizure-like behavior / decrease of PTZ-induced locomotor activity / lowered PTZ-induced locomotion / decrease of seizure-like behavior: 20 mM PTZ; for antiseizure activity in the locomotor assay (in words): up to MTC; for lowered seizure-like behavior: abstract summary, highest effect, 18 h pre-incubation; for decrease of PTZ-induced locomotor activity: range over all test concentrations (MTC and 2-, 4-, 8-fold dilutions)
Experimental: The effect of different concentrations of test compounds was explored on the locomotor behavior of larvae exposed to the GABA-antagonist PTZ. All compounds were tested at four concentrations—the maximum tolerated concentration (MTC) and two-fold, four-fold, and eight-fold dilutions of the MTC. […] In all experiments, as expected, the positive control VPA (1 mM) decreased seizure-like behavior (i.e., PTZ-induced elevated locomotor activity) with an average (±SD) of 44 ± 34%. […] The antiseizure effect depended on either the type of coumarin or the concentration.
Adult zebrafish (Danio rerio) stocks of the AB strain were maintained at 28.5 °C, on a 14/10 h light/dark cycle under standard aquaculture conditions, and fertilized eggs were collected via natural spawning. Embryos were reared under standard light/dark conditions in embryo medium (1.5 mM HEPES, pH 7.1–7.3, 17.4 mM NaCl, 0.21 mM KCl, 0.12 mM MgSO4, 0.18 mM Ca(NO3)2, and 0.6 μM methylene blue) in an incubator at 28.5 °C. For all measurements, 7-days post-fertilization (dpf) larvae were used, which were treated at 6 dpf. The zebrafish experiments described here were approved by the Local Ethics Committee in Lublin (license no: 109/2018), the Ethics Committee of the University of Leuven (approval number 023/2017), and the Belgian Federal Department of Public Health, Food Safety & Environment (approval number LA1210199). All experiments complied with the EU Directive 2010/63/EU for animal experiments.
All compounds were dissolved in dimethyl sulfoxide (DMSO) and diluted in embryo medium to achieve a final DMSO concentration of 1% v/v. Embryo medium prepared with DMSO to a final concentration of 1% v/v served as a vehicle (VHC) control. PTZ (40 mM) was dissolved in embryo medium. The control anticonvulsant used in this study was VPA.
Six-dpf larvae were treated with VHC (embryo medium (1% DMSO)), VPA (1 mM), or tested compound, in 100 µL volume for 18 h, in individual wells of a 96-well plate at 28.5 °C in the dark. Larvae were allowed to habituate for 5 min in a dark chamber of an automated tracking device (ZebraBox system, Viewpoint, Lyon, France). Then, 100 µL of embryo medium or 100 µL of a 40 mM PTZ solution was added to obtain a final concentration of 20 mM [33] and the locomotor activity was measured to evaluate seizure intensity. The total locomotor activity was quantified using ZebraLab software (Viewpoint, Lyon, France). Total locomotor activity was expressed as total distance moved. All tracking experiments were performed at least in triplicate.
(§1) All statistical analyses were performed using GraphPad Prism 5 or 7 software (GraphPad Software, Inc., San Diego, CA, USA). The locomotor activity of zebrafish larvae and electrophysiological antiseizure analysis was evaluated using one-way ANOVA followed by Dunnett’s multiple comparisons test. Values were presented as lardist sum ± standard error of the mean (SEM) or normalized PSD (%) ± standard error of the mean (SEM). Lardist is large movement distance (>6 mm/s), measured in millimeters. Significance levels: * p ≤ 0.05, ** p ≤ 0.01, and *** p ≤ 0.001.

GABAA receptor = system: GABAA receptor; set-up: method as in PMID 21749864; conditions: cited from earlier work; for EC50: read-out: EC50 (potentiation of IGABA)
[3] = system: maximal electroshock-induced seizures; conditions: cited from earlier work; for ED50 of classic anticonvulsant alone: without umbelliferone
[4] = system: PTZ-induced epileptiform activity in the zebrafish larval optic tectum; assay: Local field potential recordings from the optic tectum, power spectral density analysis; type: in vivo, zebrafish (Danio rerio); conditions: MTC, 18 h incubation; 20 mM PTZ; 20–90 Hz band
Experimental: To further investigate the results of the behavioral study for all eight selected compounds, local field potential (LFP) measurements were employed. Zebrafish larvae were incubated with the compounds at their MTC for 18 h in darkness and the epileptiform activity was measured in the zebrafish larval optic tectum. A significant reduction in larvae with PTZ-induced epileptiform activity was observed, in comparison to PTZ-treated controls, for all compounds except nodakenetin (Figure 3).
For the rapid, objective, and automated analysis of the LFP recordings, power spectral density (PSD) analysis was performed. This methodology was previously developed and used for zebrafish electrophysiology. It relies on the Welch’s method of averaging the modified periodograms with a 512-point fast Fourier transformation with 80% overlapping 100 sample (100 ms) long segments and a Hamming window. PSDs were estimated for each LFP recording over each 10 Hz frequency band, ranging from 0 to 160 Hz. All examined furanocoumarins at the MTC concentration ameliorated the excitatory effect of preincubation with PTZ. Oxypeucedanin (1), oxypeucedanin hydrate (2), and notopterol (3) decreased normalized PSD per larva to a similar level with 83–89%. […] Pimpinellin (14, an angular furanocoumarin), daphnoretin (17, a simple coumarin derivative), and hyuganin C (18, a dihydropyranocoumarin) decreased normalized PSD by 81, 88, and 65%, respectively.
Non-invasive local field potential recordings were performed from the optic tectum of 7-dpf zebrafish larvae. Larvae were treated with VHC (embryo medium (1% DMSO)) or compound (MTC) in 100 µL volume (in individual wells of a 96-well plate) in darkness (28 °C) for 18 h before measurement. Prior to the recording, 100 µL of VHC (embryo medium) or 40 mM PTZ (to obtain a final concentration of 20 mM) was added to the well for 15 min. After incubation, the larva was immobilized in 2% low-melting-point agarose (Invitrogen, Carlsbad, CA, USA) and the signal electrode, an electrode inside a blunt soda-glass pipet (1412227, Hilgenberg, Germany), was positioned on the skin covering the optic tectum. Electrophysiological recordings where performed as described before. Automated power spectral density analysis was performed using MATLABR2018b (The MathWorks, Inc., Natick, MA, USA), as described before.
as §1

For `CC(C)=CCC/C(C)=C/COc1c2ccoc2cc2oc(=O)ccc12` [bergamottin], the “inhibition (antiseizure, locomotor activity)” value ([1]; most active concentration, 2 µM) is given as 26%.

In the case of `COc1ccc2ccc(=O)oc2c1CC=C(C)C` [osthole], the “antiseizure activity in the locomotor assay (in words)” value (from here on “antiseizure activity”) [2] is given as “not active”, the “current in the absence of GABA (in words)” value (GABAA receptor) is given as “neither of them induced a current in the absence of GABA” and the “enhancement of IGABA” value (GABAA receptor) is given as “greater than 20%”. For the same compound, the EC50 (GABAA receptor) was 14 ± 1 µM, the “protection of the animals against MES” value ([3]; 266 and 259 mg/kg i.p., between 15 and 30 min before the test) was ~90% and the “effect on the anticonvulsant activity of CBZ, PB, PHT and VPA on co-administration (in words)” value ([3]; mice) was “did not have a significant effect”.

In the case of `CCC1(c2ccccc2)C(=O)NC(=O)NC1=O` [PB, phenobarbital, reference compound], the “ED50 of classic anticonvulsant alone” value ([3]; mice) is given as 35.39 mg/kg.

For `CC(C)=CCOc1c2occc2cc2ccc(=O)oc12` [imperatorin], the “antiseizure activity” value [2] is listed as “lack of antiseizure activity”, the “enhancement of IGABA” value (GABAA receptor) is listed as “greater than 20%” and the “raised threshold for electroconvulsions” value ([3]; 50 mg/kg i.p., mice) is listed as 38%. The “raised threshold for electroconvulsions” value ([3]; 100 mg/kg i.p., mice) was 68%.

In the case of lucidafuranocoumarin A, the “inhibition (antiseizure, locomotor activity)” value ([1]; 16 µM) is listed as 69%.

For `COc1c2occc2cc2ccc(=O)oc12` [xanthotoxin, reference compound], the “ED50 (anticonvulsant activity)” value ([3]; administered 60 min before electroconvulsion, mice) is listed as 219.1 ± 4.7 mg/kg.

For `CC1(C)O[C@H]1COc1c2ccoc2cc2oc(=O)ccc12` [oxypeucedanin], the lowered seizure-like behavior [2] was 38%, the “decrease of PTZ-induced locomotor activity” value [2] was 23–38% and the “decrease of normalized PSD (PTZ-induced elevation in power spectral density)” value (from here on “decrease of normalized PSD”) [4] was 83–89%. The “current in the absence of GABA (in words)” value (GABAA receptor) was “neither of them induced a current in the absence of GABA”, the “enhancement of IGABA” value (GABAA receptor) was “greater than 20%” and the EC50 (GABAA receptor) was 25 ± 8 µM. The “protective properties in MES test (in words)” value ([3]; mice) was “did not show protective properties”.

With `COc1c2ccoc2c(OC[C@@H](O)C(C)(C)O)c2oc(=O)ccc12` [byakangelicin] the “antiseizure activity” value [2] was “lack of antiseizure activity”.

In the case of `COc1c2ccoc2cc2oc(=O)ccc12` [bergapten], the “protective properties in MES test (in words)” value ([3]; mice) is given as “did not show protective properties”.

In the case of `CC(C)(O[C@@H]1O[C@H](CO)[C@@H](O)[C@H](O)[C@H]1O)[C@H]1Cc2cc3ccc(=O)oc3cc2O1` [nodakenin], the “antiseizure activity” value [2] is reported as “inactive” and the “decrease of normalized PSD” value [4] is reported as 77%.

In the case of `COc1c2ccoc2c(OC[C@H]2OC2(C)C)c2oc(=O)ccc12` [byakangelicol], the “antiseizure activity” value [2] is reported as “lack of antiseizure activity”.

In the case of `COc1c2ccoc2c(OCC=C(C)C)c2oc(=O)ccc12` [phellopterin], the “antiseizure activity” value [2] is given as “lack of antiseizure activity” and the “enhancement of IGABA” value (GABAA receptor) is given as “greater than 20%”.

In the case of `COc1cc2cc(Oc3ccc4ccc(=O)oc4c3)c(=O)oc2cc1O` [daphnoretin], the lowered seizure-like behavior [2] is reported as 65%, the “decrease of PTZ-induced locomotor activity” value [2] is reported as 42–65% and the “decrease of normalized PSD” value [4] is reported as 88%.

In the case of `CC(C)(O)[C@H](O)COc1c2ccoc2cc2oc(=O)ccc12` [oxypeucedanin hydrate], the lowered seizure-like behavior [2] is reported as 74%, the “decrease of PTZ-induced locomotor activity” value [2] is reported as 43–74% and the “decrease of normalized PSD” value [4] is reported as 83–89%.

For `COc1c(OC)c2occc2c2oc(=O)ccc12` [pimpinellin], the lowered seizure-like behavior [2] is given as 60%, the “decrease of normalized PSD” value [4] is given as 81% and the “enhancement of IGABA” value (GABAA receptor) is given as “greater than 20%”.

For `CC(C)(O)[C@H]1Cc2cc3ccc(=O)oc3cc2O1` [nodakenetin], the lowered seizure-like behavior [2] was 29% and the “decrease of normalized PSD” value [4] was 26%.

For `CC(C)=CC(O)C/C(C)=C/COc1c2ccoc2cc2oc(=O)ccc12` (stereo not shown) [notopterol], the “lowered PTZ-induced locomotion” value ([2]; 2 µM) was 54%, the “lowered PTZ-induced locomotion” value ([2]; 0.25–1 µM) was 35–39% and the lowered seizure-like behavior [2] was 54%. The “decrease of normalized PSD” value [4] was 83–89%.

For `CC(C)=CCOc1c2ccoc2cc2oc(=O)ccc12` [isoimperatorin], the “enhancement of IGABA” value (GABAA receptor) is listed as “greater than 20%”.

For `CC1(C)O[C@@H]1COc1c2occc2cc2ccc(=O)oc12` [heraclenin, reference compound], the “enhancement of IGABA” value (GABAA receptor) is listed as “greater than 20%”.

In the case of `CC(C)=CCCC(C)=CCOc1c2occc2cc2ccc(=O)oc12` [8-geranyloxypsoralen], the “antiseizure activity” value [2] is reported as “lack of antiseizure activity”.

In the case of `CC[C@H](C)C(=O)OC1c2c(ccc3ccc(=O)oc23)OC(C)(C)C1OC(C)=O` (stereo partly shown) [hyuganin C], the “decrease of seizure-like behavior” value ([2]; 10 µM) is reported as 27%, the “decrease of seizure-like behavior” value ([2]; 20 µM) is reported as 35% and the lowered seizure-like behavior [2] is reported as 35%. The “decrease of normalized PSD” value [4] was 65%.

In the case of `CCCC(CCC)C(=O)O` [VPA, valproic acid, reference compound], the “decrease of seizure-like behavior (PTZ-induced elevated locomotor activity), average ± SD” value ([2]; positive control, 1 mM, all experiments) is listed as 44 ± 34% and the “ED50 of classic anticonvulsant alone” value ([3]; mice) is listed as 281.4 mg/kg.

In the case of `O=c1ccc2ccc(O)cc2o1` [umbelliferone, 7-hydroxycoumarin], the “antiseizure activity” value [2] is listed as “not active” and the “increase of the electroshock threshold” value ([3]; 150 mg/kg i.p., 30 min before electroshock) is listed as “around 37%”.

For `C1CCc2nnnn2CC1` [PTZ, pentylenetetrazole, reference compound], the “increase in seizure-like behavior and locomotor activity (lardist sum), average ± SD” value ([2]; proconvulsant, 20 mM, all experiments) was 59 ± 35%.
